# In patent publication US9873696B2, “Neprilysin inhibitors” (THERAVANCE BIOPHARMA R&D IP, LLC, priority 2010, dated 2018):
# Target: T1, human NEP (Homo sapiens, UniProt P08473)
# T1 construct: purchased R&D Systems, Minneapolis, Minn; 1182-ZN
# Experiment: In vitro enzyme inhibition assay at human NEP (Assay 1)
# Type: biochemical
# Settings: recombinant enzyme, fluorogenic peptide substrate, 37° C.
# Description: In Vitro Assays for the Quantitation of Inhibitor Potencies (IC50) at Human and Rat NEP, and Human ACE
# The inhibitory activities of compounds at human and rat neprilysin (EC 3.4.24.11; NEP) and human angiotensin converting enzyme (ACE) were determined using in vitro assays as described below.
# Recombinant human NEP and recombinant human ACE were obtained commercially (R&D Systems, Minneapolis, Minn., catalog numbers 1182-ZN and 929-ZN, respectively). The fluorogenic peptide substrate Mca-D-Arg-Arg-Leu-Dap-(Dnp)-OH (Medeiros et al. (1997) Braz. J. Med. Biol. Res. 30:1157-62; Anaspec, San Jose, Calif.) and Abz-Phe-Arg-Lys(Dnp)-Pro-OH (Araujo et al. (2000) Biochemistry 39:8519-8525; Bachem, Torrance, Calif.) were used in the NEP and ACE assays respectively.
# The assays were performed in 384-well white opaque plates at 37° C. using the fluorogenic peptide substrates at a concentration of 10 μM in Assay Buffer (NEP: 50 mM HEPES, pH 7.5, 100 mM NaCl, 0.01% polyethylene glycol sorbitan monolaurate (Tween-20), 10 μM ZnSO4; ACE: 50 mM HEPES, pH 7.5, 100 mM NaCl, 0.01% Tween-20, 1 μM ZnSO4).
# Test compounds were assayed over the range of concentrations from […] to 20 μM. Test compounds were added to the enzymes and incubated for 30 minute at 37° C. prior to initiating the reaction by the addition of substrate. Reactions were terminated after 20 minutes of incubation at 37° C. by the addition of glacial acetic acid to a final concentration of 3.6% (v/v).
# Plates were read on a fluorometer with excitation and emission wavelengths set to 320 nm and 405 nm, respectively. Inhibition constants were obtained by nonlinear regression of the data using the equation (GraphPad Software, Inc., San Diego, Calif.): v=v0/[1+(I/K′)] where v is the reaction rate, v0 is the uninhibited reaction rate, I is the inhibitor concentration and K′ is the apparent inhibition constant.
# Compounds of the invention were tested in this assay and found to have pKi values at human NEP as follows.
# T1 sequence (P08473 whole entry): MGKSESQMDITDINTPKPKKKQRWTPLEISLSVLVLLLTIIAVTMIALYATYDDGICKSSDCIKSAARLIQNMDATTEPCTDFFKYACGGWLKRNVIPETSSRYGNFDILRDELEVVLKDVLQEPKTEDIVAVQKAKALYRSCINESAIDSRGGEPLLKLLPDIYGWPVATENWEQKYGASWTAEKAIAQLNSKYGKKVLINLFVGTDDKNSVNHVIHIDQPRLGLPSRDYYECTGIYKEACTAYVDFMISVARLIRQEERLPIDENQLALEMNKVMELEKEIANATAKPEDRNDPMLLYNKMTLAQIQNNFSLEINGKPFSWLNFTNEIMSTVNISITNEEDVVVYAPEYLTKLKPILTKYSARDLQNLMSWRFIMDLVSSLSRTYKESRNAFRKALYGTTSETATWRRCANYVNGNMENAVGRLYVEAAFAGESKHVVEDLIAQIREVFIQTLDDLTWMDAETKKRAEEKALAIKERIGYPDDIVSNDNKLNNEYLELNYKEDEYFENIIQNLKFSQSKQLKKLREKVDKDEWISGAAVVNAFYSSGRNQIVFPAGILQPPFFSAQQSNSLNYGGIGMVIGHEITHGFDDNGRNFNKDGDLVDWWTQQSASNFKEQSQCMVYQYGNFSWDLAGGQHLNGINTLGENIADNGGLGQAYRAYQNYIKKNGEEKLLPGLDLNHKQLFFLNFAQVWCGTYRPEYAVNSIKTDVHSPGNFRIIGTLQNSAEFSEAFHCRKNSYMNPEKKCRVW
row,Ki,Compound
1,≤ 1 nM,"O=C(NN(Cc1ccc(-c2cc(Cl)ccc2F)cc1)C[C@@H](O)C(=O)O)c1cc(-c2ccccc2O)n[nH]1 [Example 8-38, (R)-3-{N-(5′-Chloro-2′-fluoro-biphenyl-4-ylmethyl)-N′-[5-(2-hydroxy-phenyl)-2H-pyrazole-3-carbonyl]-hydrazino}-2-hydroxy-propionic acid]"
2,≤ 1 nM,"CC(C)c1cc(C(=O)NN(Cc2ccc(-c3cc(Cl)ccc3F)cc2)C[C@@H](O)C(=O)O)on1 [Example 8-32, (R)-3-[N-(5′-Chloro-2′-fluoro-biphenyl-4-ylmethyl)-N′-(3-isopropyl-isoxazole-5-carbonyl)-hydrazino]-2-hydroxy-propionic acid]"
3,≤ 1 nM,"O=C(NN(Cc1ccc(-c2cc(Cl)ccc2F)cc1)C[C@@H](O)C(=O)O)c1cc(-c2cccc(F)c2)no1 [Example 8-13, (R)-3-{N-(5′-Chloro-2′-fluoro-biphenyl-4-ylmethyl)-N′-[3-(3-fluoro-phenyl)-isoxazole-5-carbonyl]-hydrazino}-2-hydroxy-propionic acid]"
4,12.6 to 100 nM,"Cc1c(Cl)cc(Cl)cc1-c1ccc(CN(C[C@H](O)C(=O)O)NC(=O)c2cc(O)no2)cc1 [Example 8-28, (S)-3-[N-(3′,5′-Dichloro-2′-methyl-biphenyl-4-ylmethyl)-N′-(3-hydroxy-isoxazole-5-carbonyl)-hydrazino]-2-hydroxy-propionic acid]"
5,≤ 1 nM,"O=C(NN(Cc1ccc(-c2cc(Cl)ccc2F)cc1)C[C@@H](O)C(=O)O)c1nn(-c2cccc(Cl)c2)c(=O)[nH]1 [Example 8-67, (R)-3-{N-(5′-Chloro-2′-fluoro-biphenyl-4-ylmethyl)-N′-[1-(3-chloro-phenyl)-5-oxo-4,5-dihydro-1H-[1,2,4]triazole-3-carbonyl]-hydrazino}-2-hydroxy-propionic acid]"
6,≤ 1 nM,"CC(=O)c1cc(C(=O)NN(Cc2ccc(-c3cc(Cl)ccc3F)cc2)C[C@H](O)C(=O)O)[nH]n1 [Example 8-45, (S)-3-[N′-(5-Acetyl-2H-pyrazole-3-carbonyl)-N-(5′-chloro-2′-fluoro-biphenyl-4-ylmethyl)-hydrazino]-2-hydroxy-propionic acid]"
7,1.26 to 10 nM,"CC(C)(O)c1cc(C(=O)NN(Cc2ccc(-c3cc(Cl)ccc3F)cc2)C[C@@H](O)C(=O)O)nn1CC(=O)O [Example 8-56, (R)-3-[N′-[1-Carboxymethyl-5-(1-hydroxy-1-methyl-ethyl)-1H-pyrazole-3-carbonyl]-N-(5′-chloro-2′-fluoro-biphenyl-4-ylmethyl)-hydrazino]-2-hydroxy-propionic acid]"
8,≤ 1 nM,"O=C(NN(Cc1ccc(-c2cc(Cl)ccc2F)cc1)C[C@@H](O)C(=O)O)c1n[nH]c(Cl)n1 [Example 8-82, (R)-3-[N-(5′-Chloro-2′-fluoro-biphenyl-4-ylmethyl)-N′-(5-chloro-1H-[1,2,4]triazole-3-carbonyl)-hydrazino]-2-hydroxy-propionic acid]"
9,1.26 to 10 nM,"O=C(NN(Cc1ccc(-c2cc(F)ccc2O)cc1)C[C@H](O)C(=O)O)c1cc(O)no1 [Example 8-5, (S)-3-[N-(5′-Fluoro-2′-hydroxy-biphenyl-4-ylmethyl)-N′-(3-hydroxy-isoxazole-5-carbonyl)-hydrazino]-2-hydroxy-propionic acid]"
10,≤ 1 nM,"COc1ccc(Cl)cc1-c1ccc(CN(C[C@@H](O)C(=O)O)NC(=O)c2cc(O)no2)cc1 [Example 8-2, (R)-3-[N-(5′-Chloro-2′-methoxy-biphenyl-4-ylmethyl)-N′-(3-hydroxy-isoxazole-5-carbonyl)-hydrazino]-2-hydroxy-propionic acid]"
11,≤ 1 nM,"O=C(NN(Cc1ccc(-c2cc(Cl)cc(Cl)c2)cc1)C[C@@H](O)C(=O)O)c1cc(O)no1 [Example 8-25, (R)-3-[N-(3′,5′-Dichloro-biphenyl-4-ylmethyl)-N′-(3-hydroxy-isoxazole-5-carbonyl)-hydrazino]-2-hydroxy-propionic acid]"
12,≤ 1 nM,"O=C(NN(Cc1ccc(-c2cc(Cl)ccc2F)cc1)C[C@@H](O)C(=O)O)c1cc(-c2ccccn2)n[nH]1 [Example 8-36, (R)-3-[N-(5′-Chloro-2′-fluoro-biphenyl-4-ylmethyl)-N′-(5-pyridin-2-yl-2H-pyrazole-3-carbonyl)-hydrazino]-2-hydroxy-propionic acid]"
13,1.26 to 10 nM,"O=C(NN(Cc1ccc(-c2ccccc2F)cc1)C[C@@H](O)C(=O)O)c1cc(O)no1 [Example 5-8, (R)-3-[N-(2′-Fluoro-biphenyl-4-ylmethyl)-N′-(3-hydroxy-isoxazole-5-carbonyl)-hydrazino]-2-hydroxy-propionic acid]"
14,1.26 to 10 nM,"O=C(NN(Cc1ccc(-c2cc(F)cc(Cl)c2)cc1)C[C@H](O)C(=O)O)c1cc(O)no1 [Example 8-24, (S)-3-[N-(5′-Chloro-3′-fluoro-biphenyl-4-ylmethyl)-N′-(3-hydroxy-isoxazole-5-carbonyl)-hydrazino]-2-hydroxy-propionic acid]"
15,1.26 to 10 nM,"COc1ccccc1-c1ccc(CN(C[C@H](O)C(=O)O)NC(=O)c2cc(C(C)=O)n[nH]2)cc1 [Example 5-9, (S)-3-[N′-(5-Acetyl-2H-pyrazole-3-carbonyl)-N-(2′-methoxy-biphenyl-4-ylmethyl)-hydrazino]-2-hydroxy-propionic acid]"

# Further lines, the compound ahead of its results:
row,Compound,Ki
1,"O=C(NN(Cc1ccc(-c2cccc(Cl)c2)cc1)C[C@@H](O)C(=O)O)c1c[nH]c(=O)o1 [Example 4-39, (R)-3-[N-(3′-Chlorobiphenyl-4-ylmethyl)-N′-(2-oxo-2,3-dihydro-oxazole-5-carbonyl)-hydrazino]-2-hydroxy-propionic acid]",1.26 to 10 nM
2,"O=C(NN(Cc1ccc(-c2ccccc2)cc1)C[C@@H](O)C(=O)O)c1cc(-c2ccccc2)n[nH]1 [Example 2-16, (R)-3-[N-Biphenyl-4-ylmethyl-N′-(5-phenyl-2H-pyrazole-3-carbonyl)-hydrazino]-2-hydroxypropionic acid]",12.6 to 100 nM
3,"CN(C)C(=O)c1cc(C(=O)NN(Cc2ccc(-c3ccccc3)cc2)C[C@@H](O)C(=O)O)[nH]n1 [Example 2-6, (R)-3-[N-Biphenyl-4-ylmethyl-N′-(5-dimethylcarbamoyl-2H-pyrazole-3-carbonyl)-hydrazino]-2-hydroxypropionic acid]",1.26 to 10 nM
4,"O=C(O)c1cc(C(=O)NN(Cc2ccc(-c3cccc(Cl)c3)cc2)C[C@@H](O)C(=O)O)[nH]n1 [Example 4-23, 5-[N′-((R)-2-Carboxy-2-hydroxy-ethyl)-N′-(3′-chlorobiphenyl-4-ylmethyl)-hydrazinocarbonyl]-1H-pyrazole-3-carboxylic acid]",≤ 1 nM
5,"COCCN(C)C(=O)c1cc(C(=O)NN(Cc2ccc(-c3ccccc3)cc2)C[C@@H](O)C(=O)O)[nH]n1 [Example 2-5, (R)-3-(N-Biphenyl-4-ylmethyl-N′-{5-[(2-methoxyethyl)methylcarbamoyl]-2H-pyrazole-3-carbonyl}hydrazino)-2-hydroxypropionic acid]",12.6 to 100 nM
6,"COc1ccccc1-c1cc(C(=O)NN(Cc2ccc(-c3cccc(Cl)c3)cc2)C[C@@H](O)C(=O)O)on1 [Example 4-30, (R)-3-{N-(3′-Chlorobiphenyl-4-ylmethyl)-N′-[3-(2-methoxy-phenyl)-isoxazole-5-carbonyl]-hydrazino}-2-hydroxy-propionic acid]",1.26 to 10 nM
7,"O=C(NN(Cc1ccc(-c2cccc(Cl)c2)cc1)C[C@@H](O)C(=O)O)c1cc(O)no1 [Example 3B, (R)-3-[N-(3′-Chlorobiphenyl-4-ylmethyl)-N′-(3-hydroxyisoxazole-5-carbonyl)-hydrazino]-2-hydroxypropionic Acid]",≤ 1 nM
8,"O=C(NN(Cc1ccc(-c2ccccc2)cc1)C[C@@H](O)C(=O)O)c1cc(C(=O)N2CC[C@@H](O)C2)n[nH]1 [Example 2-11, (R)-3-{N-Biphenyl-4-ylmethyl-N′-[5-((R)-3-hydroxy-pyrrolidine-1-carbonyl)-2H-pyrazole-3-carbonyl]hydrazino}-2-hydroxypropionic acid]",1.26 to 10 nM
9,"O=C(NN(Cc1ccc(-c2ccccc2)cc1)C[C@@H](O)C(=O)O)c1cc(C(=O)N2CCC(O)C2)n[nH]1 (stereo partly drawn) [Example 2-10, (R)-3-{N-Biphenyl-4-ylmethyl-N′-[5-(3-hydroxy-pyrrolidine-1-carbonyl)-2H-pyrazole-3-carbonyl]hydrazino}-2-hydroxypropionic acid]",1.26 to 10 nM
10,"O=C(O)c1cc(C(=O)NN(Cc2ccc(-c3cccc(Cl)c3)cc2)C[C@@H](O)C(=O)O)ncn1 [Example 4-35, 6-[N′-((R)-2-Carboxy-2-hydroxy-ethyl)-N′-(3′-chlorobiphenyl-4-ylmethyl)-hydrazinocarbonyl]-pyrimidine-4-carboxylic acid]",≤ 1 nM
11,"O=C(NN(Cc1ccc(-c2ccccc2)cc1)C[C@H](O)C(=O)O)c1cnc2[nH]nnc2c1 [Example 2-22, (S)-3-[N-Biphenyl-4-ylmethyl-N′-(3H-[1,2,3]triazolo[4,5-b]pyridine-6-carbonyl)hydrazino]-2-hydroxypropionic acid]",126 to 1000 nM
